Test results reported in US5804577A, “Cephalosporin derivatives” (Hoffmann-La Roche Inc., priority 1995, dated 1998).
Values after ≈ are worked out from the molar mass of the structure shown. Where a name gives a salt, the structure may show the parent alone. Read-outs that look alike come from different tables or passages of the source.

How the values were obtained:
Test in all cases: MIC by agar dilution method in Mueller Hinton agar
Type in all cases: cell-based
[1] = test system: P. asaccharolyticus 29743; conditions: Peptoniphilus asaccharolyticus
Method: (§1) In vitro activity was determined by minimum inhibitory concentration in a microorganism spectrum by the agar dilution method in Mueller Hinton agar.

[2] = test system: B. fragilis ATCC25285; conditions: Bacteroides fragilis
Method: as §1

[3] = test system: E. cloacae 908SSi; conditions: Enterobacter cloacae
Method: as §1

[4] = test system: P. aeruginosa 27853; conditions: Pseudomonas aeruginosa
Method: as §1

[5] = test system: S. viridans group 016; conditions: Streptococcus viridans, GROUP016
Method: as §1

[6] = test system: Acinetobacter sp. 51-156; conditions: SP.51156
Method: as §1

[7] = test system: L. monocytogenes BK23; conditions: Listeria monocytogenes
Method: as §1

[8] = test system: C. freundii 43; conditions: Citrobacter freundii, 43
Method: as §1

[9] = test system: S. aureus 734 MRSA; conditions: Staphylococcus aureus, MRSA
Method: as §1

[10] = test system: P. vulgaris 1028; conditions: Proteus vulgaris
Method: as §1

[11] = test system: E. cloacae 908R; conditions: Enterobacter cloacae
Method: as §1

[12] = test system: S. agalactiae QK44; conditions: Streptococcus agalactiae
Method: as §1

[13] = test system: H. influenzae 1; conditions: Haemophilus influenzae
Method: as §1

[14] = test system: S. aureus 6538; conditions: Staphylococcus aureus, 6538
Method: as §1

[15] = test system: S. pneumoniae Q19; conditions: Streptococcus pneumoniae
Method: as §1

[16] = test system: X. maltophilia 1AC739; conditions: Stenotrophomonas maltophilia
Method: as §1

[17] = test system: E. faecalis 6; conditions: Enterococcus faecalis
Method: as §1

[18] = test system: C. difficile ZH1; conditions: Clostridioides difficile
Method: as §1

[19] = test system: S. marscescens 69438
Method: as §1

[20] = test system: M. catarrhalis RA21; conditions: Moraxella catarrhalis
Method: as §1

[21] = test system: E. coli 25922; conditions: Escherichia coli
Method: as §1

[22] = test system: K. pneumoniae 418; conditions: Klebsiella pneumoniae
Method: as §1

[23] = test system: P. mirabilis 2117; conditions: Proteus mirabilis
Method: as §1

[24] = test system: C. freundii 902; conditions: Citrobacter freundii
Method: as §1

[25] = test system: M. morganii 6H-137; conditions: Morganella morganii, 6H137
Method: as §1

[26] = K. pneumoniae 418, read-out: MIC
[27] = P. mirabilis 2117, read-out: MIC
[28] = P. aeruginosa 27853, read-out: MIC

SMILES	MIC [1]	MIC ([2]; ATCC25285)	MIC ([3]; 908SSI)	MIC [4]; 27853	MIC [5]	MIC ([7]; BK23)	MIC [8]	MIC [9]	MIC [12]	MIC [13]	MIC [14]	MIC [17]; 6	MIC ([18]; ZH1)	MIC [19]	MIC [21]; 25922	MIC ([6]; Acinetobacter)	MIC [10]; 1028	MIC ([11]; 908R)	MIC ([16]; 1AC739)	MIC ([20]; RA21)	further results
Nc1nc(/C(=N/O)C(=O)N[C@@H]2C(=O)N3C(C(=O)O)=C(/C=C4\CCN(c5ccc(O)cc5)C4=O)CS[C@H]23)cs1 [A, (6R,7R)-7-[(Z)-2-(2-Amino-thiazol-4-yl)-2-hydroxyimino-acetylamino]-3-[(E)-1-(4-hydroxy-phenyl)-2-oxo-pyrrolidin-3-ylidenemethyl]-8-oxo-5-thia-1-azabicyclo[4.2.0]oct-2-ene-2-carboxylic acid]	0.25 µg/mL (≈ 0.449 µM)	4 µg/mL (≈ 7.19 µM)	0.25 µg/mL (≈ 0.449 µM)	4 µg/mL (≈ 7.19 µM)	0.25 µg/mL (≈ 0.449 µM)	4 µg/mL (≈ 7.19 µM)	4 µg/mL (≈ 7.19 µM)	4 µg/mL (≈ 7.19 µM)	0.25 µg/mL (≈ 0.449 µM)	0.25 µg/mL (≈ 0.449 µM)	0.25 µg/mL (≈ 0.449 µM)	0.5 µg/mL (≈ 0.898 µM)	8 µg/mL (≈ 14.4 µM)	0.5 µg/mL (≈ 0.898 µM)	–	–	–	–	–	–	MIC ([6]; Acinetobacter sp. 51-156, read-out: MIC): 16 µg/mL (≈ 28.7 µM); MIC ([10]; P. vulgaris 1028, read-out: MIC): 32 µg/mL (≈ 57.5 µM); MIC ([11]; E. cloacae 908R, read-out: MIC): 16 µg/mL (≈ 28.7 µM); MIC [15]: 0.12 µg/mL (≈ 0.216 µM); MIC ([16]; X. maltophilia 1AC739, read-out: MIC): > 32 µg/mL; MIC ([20]; M. catarrhalis RA21, read-out: MIC): 16 µg/mL (≈ 28.7 µM)
Nc1nc(/C(=N/O)C(=O)N[C@@H]2C(=O)N3C(C(=O)O)=C(/C=C4\CCN(c5cccc([N+](=O)[O-])c5)C4=O)CS[C@H]23)cs1 [B]	–	2 µg/mL (≈ 3.42 µM)	0.25 µg/mL (≈ 0.427 µM)	16 µg/mL (≈ 27.3 µM)	1 µg/mL (≈ 1.71 µM)	4 µg/mL (≈ 6.83 µM)	1 µg/mL (≈ 1.71 µM)	4 µg/mL (≈ 6.83 µM)	0.5 µg/mL (≈ 0.854 µM)	0.5 µg/mL (≈ 0.854 µM)	0.25 µg/mL (≈ 0.427 µM)	–	16 µg/mL (≈ 27.3 µM)	1 µg/mL (≈ 1.71 µM)	0.12 µg/mL (≈ 0.205 µM)	16 µg/mL (≈ 27.3 µM)	16 µg/mL (≈ 27.3 µM)	2 µg/mL (≈ 3.42 µM)	> 32 µg/mL	> 16 µg/mL	MIC [22, 26]: 0.25 µg/mL (≈ 0.427 µM); MIC [23]; 2117: 0.12 µg/mL (≈ 0.205 µM); MIC [24]; 902: 0.12 µg/mL (≈ 0.205 µM); MIC ([17]; E. faecalis 6, read-out: MIC): 0.25 µg/mL (≈ 0.427 µM)
Nc1ccc(CN2CC/C(=C\C3=C(C(=O)O)N4C(=O)[C@@H](NC(=O)/C(=N\O)c5csc(N)n5)[C@H]4SC3)C2=O)cc1 [D, (6R,7R)-7-[(Z)-2-(2-Amino-thiazol-4-yl)-2-(hydroxyimino-acetylamino]-3-[(E)-1-(4-aminobenzyl)-2-oxo-pyrrolidin-3-ylidenemethyl]-8-oxo-5-thia-1-azabicyclo[4.2.0-]oct-2-ene-2-carboxylic acid trifluoroacetate]	1 µg/mL	8 µg/mL	0.5 µg/mL	> 32 µg/mL	0.5 µg/mL	4 µg/mL	8 µg/mL	8 µg/mL	0.25 µg/mL	–	1 µg/mL	1 µg/mL	–	1 µg/mL	–	32 µg/mL	> 32 µg/mL	> 32 µg/mL	> 32 µg/mL	4 µg/mL	MIC ([21]; E. coli 25922, read-out: MIC): 0.25 µg/mL; MIC ([25]; M. morganii 6H-137, read-out: MIC): 0.12 µg/mL; MIC [22]; 418: 0.25 µg/mL; MIC [23, 27]: 0.12 µg/mL; MIC ([24]; C. freundii 902, read-out: MIC): 0.25 µg/mL; MIC ([18]; C. difficile ZH1, read-out: MIC): 16 µg/mL
Nc1nc(/C(=N/O)C(=O)N[C@@H]2C(=O)N3C(C(=O)O)=C(/C=C4\CCN(C5CCNCC5)C4=O)CS[C@H]23)cs1 [G, (6R,7R)-7-[(Z)-2-(2-Amino-thiazol-4-yl)-2-hydroxyimino-acetylamino]-8-oxo-3-[(E)-2-oxo-1-piperidin-4-yl-pyrrolidin-3-ylidenemethyl]-5-thia-1-aza-bicyclo[4.2.0-]oct-2-ene-2-carboxylic acid hydrochloride (1:2)]	1 µg/mL	16 µg/mL	–	–	–	–	2 µg/mL	8 µg/mL	0.25 µg/mL	–	1 µg/mL	1 µg/mL	16 µg/mL	1 µg/mL	–	32 µg/mL	> 32 µg/mL	–	> 32 µg/mL	2 µg/mL	MIC ([3]; E. cloacae 908SSi, read-out: MIC): 0.25 µg/mL; MIC [4, 28]: 8 µg/mL; MIC ([7]; L. monocytogenes BK23, read-out: MIC): 4 µg/mL; MIC ([11]; E. cloacae 908R, read-out: MIC): 4 µg/mL
Nc1nc(/C(=N/O)C(=O)N[C@@H]2C(=O)N3C(C(=O)O)=C(/C=C4\CCN(Cc5nc6ccccc6[nH]5)C4=O)CS[C@H]23)cs1 [H, (6R,7R)-7-[(Z)-2-(2-Amino-thiazol-4-yl)-2-hydroxyimino-acetylamino]-3-[(E)-1-(1H-benzimidazol-2-ylmethyl)-2-oxo-pyrrolidin-3-ylidenemethyl]-8-oxo-5-thia-1-aza-bicyclo[4.2.0]oct-2-ene-2-carboxylic acid trifluoracetate (1:1:1)]	1 µg/mL (≈ 1.68 µM)	–	0.5 µg/mL (≈ 0.841 µM)	–	0.5 µg/mL (≈ 0.841 µM)	4 µg/mL (≈ 6.73 µM)	2 µg/mL (≈ 3.36 µM)	8 µg/mL (≈ 13.5 µM)	0.25 µg/mL (≈ 0.42 µM)	–	1 µg/mL (≈ 1.68 µM)	2 µg/mL (≈ 3.36 µM)	16 µg/mL (≈ 26.9 µM)	1 µg/mL (≈ 1.68 µM)	0.12 µg/mL (≈ 0.202 µM)	> 32 µg/mL	16 µg/mL (≈ 26.9 µM)	4 µg/mL (≈ 6.73 µM)	> 32 µg/mL	4 µg/mL (≈ 6.73 µM)	MIC ([2]; B. fragilis ATCC25285, read-out: MIC): 8 µg/mL (≈ 13.5 µM); MIC [25]: 0.25 µg/mL (≈ 0.42 µM); MIC [4, 28]: > 32 µg/mL; MIC [22, 26]: 0.12 µg/mL (≈ 0.202 µM); MIC [23, 27]: 0.25 µg/mL (≈ 0.42 µM); MIC ([24]; C. freundii 902, read-out: MIC): 0.12 µg/mL (≈ 0.202 µM)
C=CC1=C(C(=O)O)N2C(=O)[C@@H](NC(=O)/C(=N\O)c3csc(N)n3)[C@H]2SC1 [I, [6R[6a,7b(Z)]7-(2-Amino-4-thiazolyl)[(hydroxyimino)]acetyl]amino3-ethenyl 8-oxo-5-thia-1-azabicyclo-[4.2.0]oct2-ene-2-carboxylic acid, reference compound]	–	–	32 µg/mL (≈ 80.9 µM)	–	2 µg/mL (≈ 5.06 µM)	16 µg/mL (≈ 40.5 µM)	> 32 µg/mL	> 32 µg/mL	0.25 µg/mL (≈ 0.632 µM)	0.5 µg/mL (≈ 1.26 µM)	0.5 µg/mL (≈ 1.26 µM)	8 µg/mL (≈ 20.2 µM)	–	16 µg/mL (≈ 40.5 µM)	0.25 µg/mL (≈ 0.632 µM)	> 32 µg/mL	1 µg/mL (≈ 2.53 µM)	> 32 µg/mL	> 32 µg/mL	1 µg/mL (≈ 2.53 µM)	MIC [25]: 8 µg/mL (≈ 20.2 µM); MIC [4, 28]: > 32 µg/mL; MIC [22]; 418: 0.12 µg/mL (≈ 0.303 µM); MIC [23]; 2117: 0.12 µg/mL (≈ 0.303 µM); MIC [24]; 902: 16 µg/mL (≈ 40.5 µM); MIC [15]: 0.25 µg/mL (≈ 0.632 µM)
